Patent publication US9714243B2, “4-pyridinonetriazine derivatives as HIV integrase inhibitors” (Merck Sharp & Dohme Corp., priority 2012, dated 2017)
Where two headings read alike, the source gives them in different places.

System: HIV-1 (NL4-3 strain)
Test: Assay for inhibition of HIV replication (ViKinG; infected MT4-GFP cells)
Type: cell-based
Experimental: Assay for inhibition of HIV replication
MT4-GFP cells (250,000 cells/ml) were bulk-infected with HIV-1 (NL4-3 strain) at low multiplicity of infection (MOI) in RPMI+10% FBS for 24 hours. […] Test compounds were serial-diluted in DMSO on ECHO. The infected MT4-GFP cells were added to a 384-well poly-D-lysine coated black plate with clear bottom in which the diluted test compounds were placed. The cells were seeded at 8,000 cells per well and the final DMSO concentration was 0.4%. The infected cells (Green GFP cells) were quantified at both 24 and 48 hours post incubation using Acumen eX3. Viral reproductive ratio (R0) was determined using the number of infected cells at 48 hours divided by the number of infected cells at 24 hours. Percent viral growth inhibition was calculated by [1−(R−Rtripledrug)/(RDMSO−Rtripledrug)]*100. Compound potency IP or IC50 was determined by a 4-parameter dose response curve analysis.

[1] = MT4-GFP cells infected with HIV-1 NL4-3, 0% normal human serum (NHS), read-out: ViKinG IP (nM) with 0% NHS
[2] = MT4-GFP cells infected with HIV-1 NL4-3, 100% normal human serum (NHS), read-out: ViKinG IP (nM) with 100% NHS
[3] = MT4-GFP cells infected with HIV-1 NL4-3, 10% normal human serum (NHS), read-out: ViKinG IP (nM) with 10% NHS
[4] = Human immunodeficiency virus 1, NL43, MT4-GFP cells infected with HIV-1 NL4-3, 0% normal human serum (NHS), read-out: ViKinG IP (nM) with 0% NHS
[5] = Human immunodeficiency virus 1, NL43, MT4-GFP cells infected with HIV-1 NL4-3, 10% normal human serum (NHS), read-out: ViKinG IP (nM) with 10% NHS

SMILES	IC50 [1] [nM]	IC50 [2] [nM]	IC50 [3] [nM]	IC50 [4] [nM]	IC50 [5] [nM]	IC50 (Human immunodeficiency virus 1, NL43, MT4-GFP cells infected with HIV-1 NL4-3, 100% normal human serum (NHS), read-out: ViKinG IP (nM) with 100% NHS) [nM]
CCN1C(=O)c2c(O)c(=O)c(-c3nnc(Cc4ccc(F)cc4F)s3)cn2N(C)C12CCC(C(=O)N(C)CC(F)(F)F)CC2 (stereo not drawn) [Compound 103]	6.88	143	–	–	–	–
CN1C(=O)c2c(O)c(=O)c(-c3nnc(Cc4ccc(F)cc4F)s3)cn2N(C)C12CCC(C(N)=O)CC2 (stereo not drawn) [Compound 106]	186	–	812	–	–	–
CN1C(=O)c2c(O)c(=O)c(-c3nnc(Cc4ccc(F)cc4F)s3)cn2N(C)C12CCC(C(N)=O)CC2 (stereo not drawn) [Compound 107]	4.96	–	46.4	–	–	–
CN(CC(F)(F)F)C(=O)C1CCC2(CC1)N(C)C(=O)c1c(O)c(=O)c(-c3nnc(Cc4ccc(F)cc4F)s3)cn1N2C (stereo not drawn) [Compound 108]	–	–	–	24	16.1	478
CN(C(=O)C1CCC2(CC1)N(C)C(=O)c1c(O)c(=O)c(-c3nnc(Cc4ccc(F)cc4F)s3)cn1N2C)C1CC1 (stereo not drawn) [Compound 109]	12.1	–	–	–	18.2	–
CN(C(=O)C1CCC2(CC1)N(C)C(=O)c1c(O)c(=O)c(-c3nnc(Cc4ccc(F)cc4F)s3)cn1N2C)C1CC1 (stereo not drawn) [Compound 110]	5.82	–	10.7	–	–	–
CN1C(=O)c2c(O)c(=O)c(-c3nnc(Cc4ccc(F)cc4F)s3)cn2N(C)C12CCC(C(=O)NCC(F)(F)F)CC2 (stereo not drawn) [Compound 111]	26.6	–	193	–	–	–
CN1C(=O)c2c(O)c(=O)c(-c3nnc(Cc4ccc(F)cc4F)s3)cn2N(C)C12CCC(C(=O)NCC(F)(F)F)CC2 (stereo not drawn) [Compound 112]	3.36	–	11.1	–	–	–
CN1C(=O)c2c(O)c(=O)c(-c3nnc(Cc4ccc(F)cc4F)s3)cn2N(C)C12CCC(C(=O)NC1(C)CC1)CC2 (stereo not drawn) [Compound 113]	22.2	–	72.2	–	–	–
CN1C(=O)c2c(O)c(=O)c(-c3nnc(Cc4ccc(F)cc4F)s3)cn2N(C)C12CCC(C(=O)NC1(C)CC1)CC2 (stereo not drawn) [Compound 114]	4.69	–	9.07	–	–	–
CN1C(=O)c2c(O)c(=O)c(-c3nnc(Cc4ccc(F)cc4F)s3)cn2N(C)C12CCC(C(=O)N1CCCC1)CC2 (stereo not drawn) [Compound 115]	16.4	–	39.5	–	–	–
CN1C(=O)c2c(O)c(=O)c(-c3nnc(Cc4ccc(F)cc4F)s3)cn2N(C)C12CCC(C(=O)N1CCCC1)CC2 (stereo not drawn) [Compound 116]	3.94	–	15.2	–	–	–
CN1C(=O)c2c(O)c(=O)c(-c3nnc(Cc4ccc(F)cc4F)s3)cn2N(C)C12CCC(C(=O)N1CCC(F)(F)C1)CC2 (stereo not drawn) [Compound 117]	–	–	42.7	20.4	–	–
CN1C(=O)c2c(O)c(=O)c(-c3nnc(Cc4ccc(F)cc4F)s3)cn2N(C)C12CCC(C(=O)N1CCC(F)(F)C1)CC2 (stereo not drawn) [Compound 118]	14.4	–	8.43	–	–	–
CN1C(=O)c2c(O)c(=O)c(-c3nnc(Cc4ccc(F)cc4F)s3)cn2N(C)C12CCC(C(=O)N1CC(F)(F)C1)CC2 (stereo not drawn) [Compound 119]	–	189	35.6	5.26	–	–
CN1C(=O)c2c(O)c(=O)c(-c3nnc(Cc4ccc(F)cc4F)s3)cn2N(C)C12CCC(C(=O)N1CC(F)(F)C1)CC2 (stereo not drawn) [Compound 120]	5.51	516	11.7	–	–	–
COCCNC(=O)C1CCC2(CC1)N(C)C(=O)c1c(O)c(=O)c(-c3nnc(Cc4ccc(F)cc4F)s3)cn1N2C (stereo not drawn) [Compound 121]	102	–	240	–	–	–
COCCNC(=O)C1CCC2(CC1)N(C)C(=O)c1c(O)c(=O)c(-c3nnc(Cc4ccc(F)cc4F)s3)cn1N2C (stereo not drawn) [Compound 122]	5.51	–	18.4	–	–	–
CN1C(=O)c2c(O)c(=O)c(-c3nnc(Cc4ccc(F)cc4F)s3)cn2N(C)C12CCC(C(=O)NCC1(O)CC1)CC2 (stereo not drawn) [Compound 123]	47.1	–	103	–	–	–
CN1C(=O)c2c(O)c(=O)c(-c3nnc(Cc4ccc(F)cc4F)s3)cn2N(C)C12CCC(C(=O)NCC1(O)CC1)CC2 (stereo not drawn) [Compound 124]	11.3	–	22.6	–	–	–
CN(C)CCNC(=O)C1CCC2(CC1)N(C)C(=O)c1c(O)c(=O)c(-c3nnc(Cc4ccc(F)cc4F)s3)cn1N2C (stereo not drawn) [Compound 125]	374	–	543	–	–	–
